Data taken from patent US9809623B2, “α4β7 peptide monomer and dimer antagonists” (Protagonist Therapeutics, Inc., priority 2014, dated 2017).
Numbered stars: 1 amine (or outer) side, 2 acyl side, 3 side chain; on linkers, the order of the positions; unused ones are H or OH. Bridge positions count the residues as written; N and C are the ends. Square brackets hold non-standard residues; d marks the D form. Peptide text beside a SMILES is read from it. I, II: the chains in the order shown. 2Nal = N[C@@H](Cc1ccc2ccccc2c1)C(=O)O; Diglycolyl = O=C(COCC(=O)[*:2])[*:1]; NMeR = CN[C@@H](CCCNC(=N)N)C(=O)O; Pen = CC(C)(S)[C@H](N)C(=O)O

Legend:
rh integrin α4β7 = target: T1, rh integrin α4β7 (Homo sapiens, UniProt P13612+P26010); experiment: α4β7-MAdCAM Competition ELISA; assay type: binding; conditions: Table 4-B; read-out: ELISA α4β7 IC50
T1 construct: purchased R&D Systems 5397-A30
T1 sequence (P13612 34-977 limits assumed): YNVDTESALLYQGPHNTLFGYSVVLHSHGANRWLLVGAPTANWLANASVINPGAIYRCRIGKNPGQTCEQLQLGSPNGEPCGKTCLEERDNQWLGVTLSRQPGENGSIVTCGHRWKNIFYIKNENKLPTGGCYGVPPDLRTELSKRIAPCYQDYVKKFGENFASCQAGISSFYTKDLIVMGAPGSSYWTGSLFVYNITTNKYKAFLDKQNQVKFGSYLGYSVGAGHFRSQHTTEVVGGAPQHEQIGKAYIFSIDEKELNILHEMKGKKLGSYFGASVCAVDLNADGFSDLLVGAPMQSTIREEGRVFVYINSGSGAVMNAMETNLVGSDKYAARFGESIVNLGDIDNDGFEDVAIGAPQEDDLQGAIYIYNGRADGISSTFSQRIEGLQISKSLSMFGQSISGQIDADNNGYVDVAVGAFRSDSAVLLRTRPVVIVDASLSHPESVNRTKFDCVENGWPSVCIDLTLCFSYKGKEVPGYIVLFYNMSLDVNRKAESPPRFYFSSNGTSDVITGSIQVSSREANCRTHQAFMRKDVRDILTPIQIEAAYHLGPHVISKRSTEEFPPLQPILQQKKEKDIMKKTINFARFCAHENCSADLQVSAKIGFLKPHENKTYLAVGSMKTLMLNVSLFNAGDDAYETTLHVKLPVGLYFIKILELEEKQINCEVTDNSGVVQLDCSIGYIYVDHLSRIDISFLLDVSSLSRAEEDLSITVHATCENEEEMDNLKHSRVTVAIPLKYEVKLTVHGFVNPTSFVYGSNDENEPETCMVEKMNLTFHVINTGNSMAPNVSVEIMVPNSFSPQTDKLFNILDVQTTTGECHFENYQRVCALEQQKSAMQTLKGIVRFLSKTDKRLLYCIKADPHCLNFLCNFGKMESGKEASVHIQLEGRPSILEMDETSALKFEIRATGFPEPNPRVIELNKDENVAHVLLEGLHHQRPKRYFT
T1 sequence (P26010 20-723 limits assumed): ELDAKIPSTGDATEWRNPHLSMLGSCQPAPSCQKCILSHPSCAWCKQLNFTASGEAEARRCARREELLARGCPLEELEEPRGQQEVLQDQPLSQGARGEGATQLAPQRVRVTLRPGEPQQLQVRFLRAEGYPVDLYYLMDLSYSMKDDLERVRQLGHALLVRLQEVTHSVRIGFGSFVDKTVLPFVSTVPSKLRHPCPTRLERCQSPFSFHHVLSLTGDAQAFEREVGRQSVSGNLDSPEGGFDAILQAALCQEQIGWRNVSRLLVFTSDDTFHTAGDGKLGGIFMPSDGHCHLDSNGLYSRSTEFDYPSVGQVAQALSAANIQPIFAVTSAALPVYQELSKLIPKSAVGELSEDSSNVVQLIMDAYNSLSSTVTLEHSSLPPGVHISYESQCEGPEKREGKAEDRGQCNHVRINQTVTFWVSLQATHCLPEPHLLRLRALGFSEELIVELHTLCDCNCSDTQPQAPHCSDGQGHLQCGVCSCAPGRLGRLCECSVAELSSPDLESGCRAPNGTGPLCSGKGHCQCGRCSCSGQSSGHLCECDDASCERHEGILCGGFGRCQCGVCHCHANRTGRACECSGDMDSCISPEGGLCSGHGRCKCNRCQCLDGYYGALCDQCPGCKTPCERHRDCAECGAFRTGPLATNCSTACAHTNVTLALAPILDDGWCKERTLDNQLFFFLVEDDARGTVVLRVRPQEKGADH
Summary of the method: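 Recombinant human α4β7 was captured on nickel plates at 800 ng/well. Peptide in 3-fold serial dilution (final top 10 μM) competed with MAdCAM-1 (final 10 nM) for 1 h at room temperature in 50 mM Tris pH 7.6, 150 mM NaCl, 1 mM MnCl2 or MgCl2. Bound MAdCAM-1 was detected with anti-human IgG1-HRP/TMB at A450.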

[1] = Dithiothreitol (DTT) Redox Stability Assay; assay type: physicochemical; conditions: Table 4-C, t1/2, 0.5 mM DTT
Experimental: For each peptide tested, the DTT stability assay was conducted by adding 5 μl of a 10 mM peptide stock solution in DMSO to 1 ml of 100 mM Tris-Cl, pH 7.5 (final peptide concentration is 50 μM). At time 0 min, 5 ul of a freshly thawed 100 mM DTT solution was added to the incubation tube containing the peptide, such that the final DTT concentration was 0.5 mM. The reactions were incubated at room temperature. At different time points up to 120 minutes (20 min, 40 min, 80 min, 120 min), 50 ul aliquots were removed, and the reaction was quenched by adding 10 μl of 5M acetic acid. To measure disappearance of the parent peptide, the quenched samples (30 μl) were analyzed by reverse phase HPLC and UV absorbance at 220 nm. The fraction oxidized remaining was graphed versus time, and half-lives were calculated by fitting to a first-order exponential decay equation using Excel.

α4β1 = α4β1 (Homo sapiens, UniProt P05556+P13612); experiment: α4β1-VCAM Cell Adhesion Assay (Jurkat E6.1 human cells); assay type: cell-based; set-up: host or cells: Jurkat E6.1 human T cells; conditions: Table 4-B; read-out: Cell Adhesion α4β1 IC50
Chain of α4β1 (P13612 34-1032): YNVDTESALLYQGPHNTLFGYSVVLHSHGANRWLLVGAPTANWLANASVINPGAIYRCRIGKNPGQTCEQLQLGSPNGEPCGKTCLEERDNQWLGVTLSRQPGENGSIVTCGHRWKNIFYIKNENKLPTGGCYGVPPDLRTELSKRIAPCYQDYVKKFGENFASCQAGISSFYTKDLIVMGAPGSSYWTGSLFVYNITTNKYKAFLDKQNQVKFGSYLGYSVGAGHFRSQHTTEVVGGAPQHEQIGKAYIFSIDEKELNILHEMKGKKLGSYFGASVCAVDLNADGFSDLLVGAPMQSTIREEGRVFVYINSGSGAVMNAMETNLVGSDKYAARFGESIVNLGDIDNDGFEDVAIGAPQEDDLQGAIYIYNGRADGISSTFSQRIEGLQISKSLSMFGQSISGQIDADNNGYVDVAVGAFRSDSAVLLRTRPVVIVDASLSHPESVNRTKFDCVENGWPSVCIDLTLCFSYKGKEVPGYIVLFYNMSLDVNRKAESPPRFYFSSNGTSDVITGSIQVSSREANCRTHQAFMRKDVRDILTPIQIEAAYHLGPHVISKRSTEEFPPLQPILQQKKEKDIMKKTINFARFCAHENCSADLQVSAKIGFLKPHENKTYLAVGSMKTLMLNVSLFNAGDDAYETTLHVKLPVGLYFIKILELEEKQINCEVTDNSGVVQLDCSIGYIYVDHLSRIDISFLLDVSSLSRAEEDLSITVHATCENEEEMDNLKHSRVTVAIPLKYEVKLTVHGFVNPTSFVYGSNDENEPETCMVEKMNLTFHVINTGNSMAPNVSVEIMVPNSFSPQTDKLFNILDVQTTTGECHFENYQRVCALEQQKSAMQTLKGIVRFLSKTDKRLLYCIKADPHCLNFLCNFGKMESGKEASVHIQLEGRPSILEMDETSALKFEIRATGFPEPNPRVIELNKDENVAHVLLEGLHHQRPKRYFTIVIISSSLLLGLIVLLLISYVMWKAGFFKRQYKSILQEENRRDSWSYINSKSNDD
Chain of α4β1 (P05556 21-798): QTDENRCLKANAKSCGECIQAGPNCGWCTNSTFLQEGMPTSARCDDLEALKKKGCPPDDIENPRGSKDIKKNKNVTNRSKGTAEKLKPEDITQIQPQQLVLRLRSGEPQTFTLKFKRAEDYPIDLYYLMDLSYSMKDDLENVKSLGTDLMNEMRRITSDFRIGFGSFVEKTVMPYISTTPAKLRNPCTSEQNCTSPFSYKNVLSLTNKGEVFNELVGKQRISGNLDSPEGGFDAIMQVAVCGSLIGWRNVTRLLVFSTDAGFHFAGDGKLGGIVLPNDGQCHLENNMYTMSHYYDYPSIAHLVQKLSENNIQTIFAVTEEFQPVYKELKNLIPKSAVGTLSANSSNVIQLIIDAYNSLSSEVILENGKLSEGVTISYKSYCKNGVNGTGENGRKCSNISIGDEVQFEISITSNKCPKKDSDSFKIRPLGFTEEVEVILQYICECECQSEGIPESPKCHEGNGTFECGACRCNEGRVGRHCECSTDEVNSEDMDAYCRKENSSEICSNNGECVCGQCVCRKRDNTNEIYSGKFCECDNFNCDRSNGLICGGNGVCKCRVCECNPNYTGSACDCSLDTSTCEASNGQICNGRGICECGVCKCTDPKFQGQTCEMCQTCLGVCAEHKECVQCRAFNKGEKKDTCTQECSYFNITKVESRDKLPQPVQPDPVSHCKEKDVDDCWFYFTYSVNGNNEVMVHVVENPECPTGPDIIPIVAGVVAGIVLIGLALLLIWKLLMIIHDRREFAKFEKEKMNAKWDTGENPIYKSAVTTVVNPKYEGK
Summary of the method: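 Jurkat E6.1 cells in DMEM with 0.1% BSA, 10 mM HEPES pH 7 and 1 mM MnCl2 were added (200,000/well) with serially diluted peptides to rh VCAM-1-Fc-coated wells (400 ng/well) for 30-45 min at 37 °C. Adherent cells after washing were quantified by MTT, absorbance 570 nm, with no-cell background subtracted for dose response.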

SMILES: CC(=O)N[C@@H]1C(=O)N(C)[C@@H](CCCNC(=N)N)C(=O)N[C@@H](CO)C(=O)N[C@@H](CC(=O)O)C(=O)N[C@@H]([C@@H](C)O)C(=O)N[C@@H](CC(C)C)C(=O)N[C@H](C(=O)N[C@@H](Cc2ccc3ccccc3c2)C(=O)N[C@@H](CCC(=O)O)C(=O)N[C@H](CCCCNC(=O)COCC(=O)NCCCC[C@@H](NC(=O)[C@H](CCC(=O)O)NC(=O)[C@H](Cc2ccc3ccccc3c2)NC(=O)[C@H]2NC(=O)[C@H](CC(C)C)NC(=O)[C@H]([C@@H](C)O)NC(=O)[C@H](CC(=O)O)NC(=O)[C@H](CO)NC(=O)[C@H](CCCNC(=N)N)N(C)C(=O)[C@@H](NC(C)=O)C(C)(C)SSC2(C)C)C(N)=O)C(N)=O)C(C)(C)SSC1(C)C [compound 212, (Ac-Pen-N-Me-R-S-D-T-L-Pen-2-Nal-E-k-NH2)2-DIG] (I: Ac-[Pen][NMeR]SDTL[Pen][2Nal]E[dK]-NH2 / II: Ac-[Pen][NMeR]SDTL[Pen][2Nal]E[dK]-NH2; disulfide I:1-I:7, II:1-II:7 (inferred); linker I:10-II:10 via Diglycolyl (inferred))
- IC50 (rh integrin α4β7): 2 nM
- DTT Min [1]: >120 min
- IC50 (α4β1): > 100000 nM

SMILES: CC(=O)N[C@@H]1C(=O)N(C)[C@@H](CCCNC(=N)N)C(=O)N[C@@H](CO)C(=O)N[C@@H](CC(=O)O)C(=O)N[C@@H]([C@@H](C)O)C(=O)N[C@@H](CC(C)C)C(=O)N[C@H](C(=O)N[C@@H](Cc2c[nH]c3ccccc23)C(=O)N[C@H](CCCCNC(=O)COCC(=O)NCCCC[C@@H](NC(=O)[C@H](Cc2c[nH]c3ccccc23)NC(=O)[C@H]2NC(=O)[C@H](CC(C)C)NC(=O)[C@H]([C@@H](C)O)NC(=O)[C@H](CC(=O)O)NC(=O)[C@H](CO)NC(=O)[C@H](CCCNC(=N)N)N(C)C(=O)[C@@H](NC(C)=O)C(C)(C)SSC2(C)C)C(N)=O)C(N)=O)C(C)(C)SSC1(C)C [compound 209, (Ac-Pen-N-Me-R-S-D-T-L-Pen-W-k-NH2)2-DIG] (I: Ac-[Pen][NMeR]SDTL[Pen]W[dK]-NH2 / II: Ac-[Pen][NMeR]SDTL[Pen]W[dK]-NH2; disulfide I:1-I:7, II:1-II:7 (inferred); linker I:9-II:9 via Diglycolyl (inferred))
- IC50 (rh integrin α4β7): 2.3 nM
- DTT Min [1]: >120 min
- IC50 (α4β1): > 100000 nM

SMILES: CC(=O)N[C@@H]1C(=O)N(C)[C@@H](CCCNC(=N)N)C(=O)N[C@@H](CO)C(=O)N[C@@H](CC(=O)O)C(=O)N[C@@H]([C@@H](C)O)C(=O)N[C@@H](CC(C)C)C(=O)N[C@H](C(=O)N[C@@H](Cc2c[nH]c3ccccc23)C(=O)N[C@@H](CCC(=O)O)C(=O)N[C@H](CCCCNC(=O)COCC(=O)NCCCC[C@@H](NC(=O)[C@H](CCC(=O)O)NC(=O)[C@H](Cc2c[nH]c3ccccc23)NC(=O)[C@H]2NC(=O)[C@H](CC(C)C)NC(=O)[C@H]([C@@H](C)O)NC(=O)[C@H](CC(=O)O)NC(=O)[C@H](CO)NC(=O)[C@H](CCCNC(=N)N)N(C)C(=O)[C@@H](NC(C)=O)C(C)(C)SSC2(C)C)C(N)=O)C(N)=O)C(C)(C)SSC1(C)C [compound 217, (Ac-Pen-N-Me-R-S-D-T-L-Pen-W-E-k-NH2)2-DIG] (I: Ac-[Pen][NMeR]SDTL[Pen]WE[dK]-NH2 / II: Ac-[Pen][NMeR]SDTL[Pen]WE[dK]-NH2; disulfide I:1-I:7, II:1-II:7 (inferred); linker I:10-II:10 via Diglycolyl (inferred))
- IC50 (rh integrin α4β7): 2.3 nM
- DTT Min [1]: >120 min
- IC50 (α4β1): > 100000 nM

SMILES: CC(=O)N[C@@H]1C(=O)N(C)[C@@H](CCCNC(=N)N)C(=O)N[C@@H](CO)C(=O)N[C@@H](CC(=O)O)C(=O)N[C@@H]([C@@H](C)O)C(=O)N[C@@H](CC(C)C)C(=O)N[C@H](C(=O)N[C@@H](Cc2c[nH]c3ccccc23)C(=O)N[C@H](CCC(=O)O)C(=O)N[C@H](CCCCNC(=O)COCC(=O)NCCCC[C@@H](NC(=O)[C@@H](CCC(=O)O)NC(=O)[C@H](Cc2c[nH]c3ccccc23)NC(=O)[C@H]2NC(=O)[C@H](CC(C)C)NC(=O)[C@H]([C@@H](C)O)NC(=O)[C@H](CC(=O)O)NC(=O)[C@H](CO)NC(=O)[C@H](CCCNC(=N)N)N(C)C(=O)[C@@H](NC(C)=O)C(C)(C)SSC2(C)C)C(N)=O)C(N)=O)C(C)(C)SSC1(C)C [compound 211, (Ac-Pen-N-Me-R-S-D-T-L-Pen-W-e-k-NH2)2-DIG] (I: Ac-[Pen][NMeR]SDTL[Pen]W[dE][dK]-NH2 / II: Ac-[Pen][NMeR]SDTL[Pen]W[dE][dK]-NH2; disulfide I:1-I:7, II:1-II:7 (inferred); linker I:10-II:10 via Diglycolyl (inferred))
- IC50 (rh integrin α4β7): 3 nM
- DTT Min [1]: >120 min
- IC50 (α4β1): > 100000 nM

SMILES: CC(=O)N[C@H]1CSSC(C)(C)[C@@H](C(=O)N[C@@H](Cc2c[nH]c3ccccc23)C(=O)N[C@H](CCCCNC(=O)COCC(=O)NCCCC[C@@H](NC(=O)[C@H](Cc2c[nH]c3ccccc23)NC(=O)[C@H]2NC(=O)[C@H](CC(C)C)NC(=O)[C@H]([C@@H](C)O)NC(=O)[C@H](CC(=O)O)NC(=O)[C@H](CO)NC(=O)[C@H](CCCNC(=N)N)N(C)C(=O)[C@@H](NC(C)=O)CSSC2(C)C)C(N)=O)C(N)=O)NC(=O)[C@H](CC(C)C)NC(=O)[C@H]([C@@H](C)O)NC(=O)[C@H](CC(=O)O)NC(=O)[C@H](CO)NC(=O)[C@H](CCCNC(=N)N)N(C)C1=O [compound 204, (Ac-C-N-Me-R-S-D-T-L-Pen-W-k-NH2)2-DIG] (I: Ac-C[NMeR]SDTL[Pen]W[dK]-NH2 / II: Ac-C[NMeR]SDTL[Pen]W[dK]-NH2; disulfide I:1-I:7, II:1-II:7 (inferred); linker I:9-II:9 via Diglycolyl (inferred))
- IC50 (rh integrin α4β7): 2 nM
- DTT Min [1]: 27 min
- IC50 (α4β1): > 100000 nM

SMILES: CC(=O)N[C@@H]1C(=O)N(C)[C@@H](CCCNC(=N)N)C(=O)N[C@@H](CO)C(=O)N[C@@H](CC(=O)O)C(=O)N[C@@H]([C@@H](C)O)C(=O)N[C@@H](CC(C)C)C(=O)N[C@H](C(=O)N[C@@H](Cc2ccc3ccccc3c2)C(=O)N[C@@H](CCC(=O)O)C(=O)N[C@H](CCCCN)C(N)=O)C(C)(C)SSC1(C)C [compound 210, Ac-Pen-N-Me-R-S-D-T-L-Pen-2-Nal-E-k-NH2] (Ac-[Pen][NMeR]SDTL[Pen][2Nal]E[dK]-NH2; disulfide 1-7)
- IC50 (rh integrin α4β7): 11 nM
- DTT Min [1]: >120 min
- IC50 (α4β1): > 100000 nM
